Measured values from PMC5426640, “A novel multifunctional peptide oligomer of bacitracin with possible bioindustrial and therapeutic applications from a Korean food-source Bacillus strain” (PLoS ONE, 2017).
Where a SMILES comes first, the peptide text is derived from it. Bridges are numbered along the chain shown (N, C = ends). [ ]: non-standard residue; d: D form. The star is where a group is joined. Ileψ(thiazoline)Cys = CC[C@H](C)[C@H](N)C1=N[C@H](C(=O)*)CS1; dOrn = NCCC[C@@H](N)C(=O)O

What was measured:
Experiment in all cases: RT-PCR of mRNA expression in LPS-stimulated RAW 264.7 cells
Assay type in all cases: cell-based, mouse
Details in all cases: 10, 50, or 100 μg/mL, LPS 2–12 h, GAPDH control
COX-2 mRNA = test system: COX-2 mRNA
Procedure: (§1) Total RNA from the AMP-treated cells was prepared using the RNAiso Reagent (Takara) and was stored at −80°C until use. For the detection of iNOS, COX-2, TNF-α, IL-Iβ, and IL-6, total RNA was extracted after stimulation and treatment. The mRNA expression levels of iNOS, COX-2, TNF-α, IL-Iβ, and IL-6 in the treated cells were compared to the expression levels in control cells. One microgram of RNA was reverse-transcribed into cDNA and used as a template for PCR amplification. PCR was performed on a DNA Gene Cycler, under the following conditions: 40 cycles of denaturation at 94°C for 30 s, annealing at 58°C for 30 s, and primer extension at 72°C for 40 s. PCR products were analyzed on 1% agarose gels, and bands were visualized by ethidium bromide staining.

iNOS mRNA = test system: iNOS mRNA
Procedure: as §1

TNF-α mRNA = test system: TNF-α mRNA
Procedure: as §1

IL-6 mRNA = test system: IL-6 mRNA
Procedure: as §1

CC[C@H](C)[C@H](N)C1=N[C@H](C(=O)N[C@@H](CC(C)C)C(=O)N[C@H](CCC(=O)O)C(=O)N[C@H](C(=O)N[C@H]2CCCCNC(=O)[C@H](CC(N)=O)NC(=O)[C@@H](CC(=O)O)NC(=O)[C@H](Cc3c[nH]cn3)NC(=O)[C@@H](Cc3ccccc3)NC(=O)[C@H]([C@@H](C)CC)NC(=O)[C@@H](CCCN)NC2=O)[C@@H](C)CC)CS1 [CSP32] ({Ileψ(thiazoline)Cys}-L[dE]IK[dOrn]I[dF]H[dD]N; lactam 4-C; N-terminus assumed)
Effect on LPS-induced COX-2 mRNA expression (COX-2 mRNA): significantly attenuated iNOS and COX-2 mRNA upregulation in a dose-dependent manner | Effect on LPS-induced iNOS mRNA expression (iNOS mRNA): significantly attenuated iNOS and COX-2 mRNA upregulation in a dose-dependent manner | Effect on LPS-induced TNF-α mRNA expression (TNF-α mRNA): dose-dependently attenuated the LPS-enhanced expression | Effect on LPS-induced IL-6 mRNA expression (IL-6 mRNA): dose-dependently attenuated the LPS-enhanced expression
